Measurements: ChEMBL document CHEMBL3885881, “DrugMatrix”

Organism: Rattus norvegicus
Assay: DrugMatrix - Regimen: Daily Repeat
Format: toxicity, organism-based, Sprague-Dawley
Parameters: regimen Daily Repeat, gender Male, age 6-8 weeks
Details: in vivo, po, route oral GAVAGE, vehicle 100 % WATER; for ABSOLUTE BASOPHIL / ABSOLUTE EOSINOPHIL / ABSOLUTE LYMPHOCYTE / ABSOLUTE MONOCYTE / ABSOLUTE SEGMENTED NEUTROPHIL / BASOPHIL / EOSINOPHIL / ERYTHROCYTE COUNT / HEMATOCRIT / HEMOGLOBIN / LEUKOCYTE COUNT / LYMPHOCYTE / MEAN CORPUSCULAR HEMOGLOBIN / MEAN CORPUSCULAR HEMOGLOBIN CONCENTRATION / MEAN CORPUSCULAR VOLUME / MONOCYTE / NEUTROPHIL / NUCLEATED RED BLOOD CELLS / PLATELET COUNT: tissue Blood; for ALANINE AMINOTRANSFERASE / ALBUMIN / ALKALINE PHOSPHATASE / ASPARTATE AMINOTRANSFERASE / BLOOD UREA NITROGEN / CARBON DIOXIDE / CHLORIDE / CHOLESTEROL / CREATINE PHOSPHOKINASE / CREATININE / GLUCOSE / LACTATE DEHYDROGENASE / LIPASE / PHOSPHORUS / POTASSIUM / SODIUM / TOTAL BILIRUBIN / TOTAL PROTEIN / URIC ACID: tissue Plasma
[1] = 0 mg/kg, 72 h, dose level Control, time 3 day
[2] = 0 mg/kg, 120 h, dose level Control, time 5 day
[3] = 60 mg/kg, 72 h, dose level Low, time 3 day
[4] = 60 mg/kg, 120 h, dose level Low, time 5 day

SMILES: CC(CCc1ccccc1)NCC(O)c1ccc(O)c(C(N)=O)c1 (configuration not stated) [LABETALOL]
- ABSOLUTE BASOPHIL [1]: 0 CELLS/uL
- ABSOLUTE EOSINOPHIL [1]: 168.33 CELLS/uL
- ABSOLUTE LYMPHOCYTE [1]: 13654.17 CELLS/uL
- ABSOLUTE MONOCYTE [1]: 121 CELLS/uL
- ABSOLUTE SEGMENTED NEUTROPHIL [1]: 1223.17 CELLS/uL
- BASOPHIL [1]: 0%
- EOSINOPHIL [1]: 1.17%
- ERYTHROCYTE COUNT [1]: 5.7 x10E6/uL
- HEMATOCRIT [1]: 35.33%
- HEMOGLOBIN [1]: 13.97 G/DL
- LEUKOCYTE COUNT [1]: 15.17 x10E3/uL
- LYMPHOCYTE [1]: 89.83%
- MEAN CORPUSCULAR HEMOGLOBIN [1]: 24.53 pg
- MEAN CORPUSCULAR HEMOGLOBIN CONCENTRATION [1]: 39.53 G/DL
- MEAN CORPUSCULAR VOLUME [1]: 62.05 fL
- MONOCYTE [1]: 0.83%
- NEUTROPHIL [1]: 8.17%
- NUCLEATED RED BLOOD CELLS [1]: 0 /100WBC
- PLATELET COUNT [1]: 1312.17 x10E3/uL
- ALANINE AMINOTRANSFERASE [1]: 50.83 u/L
- ALBUMIN [1]: 4.18 G/DL
- ALKALINE PHOSPHATASE [1]: 334.17 u/L
- ASPARTATE AMINOTRANSFERASE [1]: 82.17 u/L
- BLOOD UREA NITROGEN [1]: 15.5 mg/dL
- CARBON DIOXIDE [1]: 31.33 mmol/L
- CHLORIDE [1]: 99.83 MEQ/L
- CHOLESTEROL [1]: 76 mg/dL
- CREATINE PHOSPHOKINASE [1]: 272.17 u/L
- CREATININE [1]: 0.17 mg/dL
- GLUCOSE [1]: 143 mg/dL
- LACTATE DEHYDROGENASE [1]: 157.5 u/L
- LIPASE [1]: 9.33 u/L
- PHOSPHORUS [1]: 12.18 mg/dL
- POTASSIUM [1]: 6.78 MEQ/L
- SODIUM [1]: 143.9 MEQ/L
- TOTAL BILIRUBIN [1]: 0.22 mg/dL
- TOTAL PROTEIN [1]: 5.85 G/DL
- URIC ACID [1]: 1.7 mg/dL
- ABSOLUTE BASOPHIL [2]: 0 CELLS/uL
- ABSOLUTE EOSINOPHIL [2]: 0 CELLS/uL
- ABSOLUTE LYMPHOCYTE [2]: 13539.33 CELLS/uL
- ABSOLUTE MONOCYTE [2]: 177.67 CELLS/uL
- ABSOLUTE SEGMENTED NEUTROPHIL [2]: 2116.33 CELLS/uL
- BASOPHIL [2]: 0%
- EOSINOPHIL [2]: 0%
- ERYTHROCYTE COUNT [2]: 5.78 x10E6/uL
- HEMATOCRIT [2]: 36.13%
- HEMOGLOBIN [2]: 14.1 G/DL
- LEUKOCYTE COUNT [2]: 15.83 x10E3/uL
- LYMPHOCYTE [2]: 85.83%
- MEAN CORPUSCULAR HEMOGLOBIN [2]: 24.42 pg
- MEAN CORPUSCULAR HEMOGLOBIN CONCENTRATION [2]: 39 G/DL
- MEAN CORPUSCULAR VOLUME [2]: 62.55 fL
- MONOCYTE [2]: 0.83%
- NEUTROPHIL [2]: 13.33%
- NUCLEATED RED BLOOD CELLS [2]: 0.17 /100WBC
- PLATELET COUNT [2]: 1281.17 x10E3/uL
- ALANINE AMINOTRANSFERASE [2]: 55.5 u/L
- ALBUMIN [2]: 4.22 G/DL
- ALKALINE PHOSPHATASE [2]: 345 u/L
- ASPARTATE AMINOTRANSFERASE [2]: 92.5 u/L
- BLOOD UREA NITROGEN [2]: 16.5 mg/dL
- CARBON DIOXIDE [2]: 26.5 mmol/L
- CHLORIDE [2]: 103.5 MEQ/L
- CHOLESTEROL [2]: 78.5 mg/dL
- CREATINE PHOSPHOKINASE [2]: 381.5 u/L
- CREATININE [2]: 0.21 mg/dL
- GLUCOSE [2]: 161.83 mg/dL
- LACTATE DEHYDROGENASE [2]: 487.5 u/L
- LIPASE [2]: 10.17 u/L
- PHOSPHORUS [2]: 11.83 mg/dL
- POTASSIUM [2]: 6.4 MEQ/L
- SODIUM [2]: 146.95 MEQ/L
- TOTAL BILIRUBIN [2]: 0.22 mg/dL
- TOTAL PROTEIN [2]: 6.22 G/DL
- URIC ACID [2]: 1.83 mg/dL
- ABSOLUTE BASOPHIL [3]: 0 CELLS/uL
- ABSOLUTE EOSINOPHIL [3]: 201.33 CELLS/uL
- ABSOLUTE LYMPHOCYTE [3]: 14909.33 CELLS/uL
- ABSOLUTE MONOCYTE [3]: 67 CELLS/uL
- ABSOLUTE SEGMENTED NEUTROPHIL [3]: 1589 CELLS/uL
- BASOPHIL [3]: 0%
- EOSINOPHIL [3]: 1.33%
- ERYTHROCYTE COUNT [3]: 5.26 x10E6/uL
- HEMATOCRIT [3]: 33.47%
- HEMOGLOBIN [3]: 13 G/DL
- LEUKOCYTE COUNT [3]: 16.77 x10E3/uL
- LYMPHOCYTE [3]: 89.33%
- MEAN CORPUSCULAR HEMOGLOBIN [3]: 24.77 pg
- MEAN CORPUSCULAR HEMOGLOBIN CONCENTRATION [3]: 38.9 G/DL
- MEAN CORPUSCULAR VOLUME [3]: 63.63 fL
- MONOCYTE [3]: 0.33%
- NEUTROPHIL [3]: 9%
- NUCLEATED RED BLOOD CELLS [3]: 0 /100WBC
- PLATELET COUNT [3]: 1299.67 x10E3/uL
- ALANINE AMINOTRANSFERASE [3]: 51.67 u/L
- ALBUMIN [3]: 4.23 G/DL
- ALKALINE PHOSPHATASE [3]: 301.67 u/L
- ASPARTATE AMINOTRANSFERASE [3]: 83.67 u/L
- BLOOD UREA NITROGEN [3]: 14.33 mg/dL
- CARBON DIOXIDE [3]: 31.67 mmol/L
- CHLORIDE [3]: 98.67 MEQ/L
- CHOLESTEROL [3]: 81.33 mg/dL
- CREATINE PHOSPHOKINASE [3]: 278 u/L
- CREATININE [3]: 0.27 mg/dL
- GLUCOSE [3]: 142.33 mg/dL
- LACTATE DEHYDROGENASE [3]: 160 u/L
- LIPASE [3]: 9.33 u/L
- PHOSPHORUS [3]: 12.9 mg/dL
- POTASSIUM [3]: 6.47 MEQ/L
- SODIUM [3]: 145.3 MEQ/L
- TOTAL BILIRUBIN [3]: 0.2 mg/dL
- TOTAL PROTEIN [3]: 5.97 G/DL
- URIC ACID [3]: 1.7 mg/dL
- ABSOLUTE BASOPHIL [4]: 0 CELLS/uL
- ABSOLUTE EOSINOPHIL [4]: 0 CELLS/uL
- ABSOLUTE LYMPHOCYTE [4]: 14854.33 CELLS/uL
- ABSOLUTE MONOCYTE [4]: 209.33 CELLS/uL
- ABSOLUTE SEGMENTED NEUTROPHIL [4]: 1369.67 CELLS/uL
- BASOPHIL [4]: 0%
- EOSINOPHIL [4]: 0%
- ERYTHROCYTE COUNT [4]: 5.65 x10E6/uL
- HEMATOCRIT [4]: 34.93%
- HEMOGLOBIN [4]: 13.63 G/DL
- LEUKOCYTE COUNT [4]: 16.43 x10E3/uL
- LYMPHOCYTE [4]: 90.33%
- MEAN CORPUSCULAR HEMOGLOBIN [4]: 24.17 pg
- MEAN CORPUSCULAR HEMOGLOBIN CONCENTRATION [4]: 39.03 G/DL
- MEAN CORPUSCULAR VOLUME [4]: 61.87 fL
- MONOCYTE [4]: 1.33%
- NEUTROPHIL [4]: 8.33%
- NUCLEATED RED BLOOD CELLS [4]: 0 /100WBC
- PLATELET COUNT [4]: 1103 x10E3/uL
- ALANINE AMINOTRANSFERASE [4]: 59 u/L
- ALBUMIN [4]: 4.03 G/DL
- ALKALINE PHOSPHATASE [4]: 331.33 u/L
- ASPARTATE AMINOTRANSFERASE [4]: 90.67 u/L
- BLOOD UREA NITROGEN [4]: 16.67 mg/dL
- CARBON DIOXIDE [4]: 27.33 mmol/L
- CHLORIDE [4]: 100.67 MEQ/L
- CHOLESTEROL [4]: 96.67 mg/dL
- CREATINE PHOSPHOKINASE [4]: 354.33 u/L
- CREATININE [4]: 0.23 mg/dL
- GLUCOSE [4]: 144 mg/dL
- LACTATE DEHYDROGENASE [4]: 305.33 u/L
- LIPASE [4]: 9.33 u/L
- PHOSPHORUS [4]: 12.57 mg/dL
- POTASSIUM [4]: 6.21 MEQ/L
- SODIUM [4]: 143.47 MEQ/L
- TOTAL BILIRUBIN [4]: 0.23 mg/dL
- TOTAL PROTEIN [4]: 5.93 G/DL
- URIC ACID [4]: 1.53 mg/dL
